Laboratory results reported in paper PMC10235848, “Novel N′-substituted benzylidene benzohydrazides linked to 1,2,3-triazoles: potent α-glucosidase inhibitors” (Scientific Reports, 2023).

Tests used:
HEK293 cell line = details: no reference given; cited from earlier work
α-glucosidase [1] = target: T1, α-glucosidase (Saccharomyces cerevisiae, UniProt P53341); details: cited from earlier work
α-glucosidase [2] = target: T1, α-glucosidase; experiment: Fluorescence quenching spectroscopy; type: binding; set-up: ΔS: unit not given here; details: for Kq quenching rate constant / n binding sites: 25 °C; for ΔS: standard thermodynamic values from KA
Procedure: Fluorescence spectrometry was used for studying the interactions between selected α-glucosidase inhibitors (7a, 7d, and 7h) and the enzyme at 25 °C and pH 6.8 to determine the binding constants, number of binding sites, and thermodynamic parameters of the corresponding interactions. Herein, the maximum fluorescence intensity of α-glucosidase was obtained at 340 nm, which can be attributed to tryptophan, tyrosine, and phenylalanine residues that can act as intrinsic fluorescence probes with excitation at 280 nm.
The fluorescence measurements were performed on a Synergy HTX multi-mode reader (Biotek Instruments, Winooski, VT, USA) equipped with a quartz cuvette of 10 mm. The excitation wavelength was 280 nm and the emission spectra were measured in the range from 300 to 440 nm with 10 accumulations for each collection point. The emission spectrum was corrected for the background fluorescence from the buffer solution and for the inner filter effect promoted by the inhibitors. The protein-inhibitors interaction measurements were performed by collecting the fluorescence.
The fluorescence quenching of the protein (P) by a drug or inhibitor (D) was analyzed by Stern−Volmer equation (Eq. 1), where F0 and F are the fluorescence intensity in the absence and presence of a quencher (inhibitor), respectively. [D] is the concentration of inhibitor, Kq is the quenching rate constant, τ0 is the average life-time of the molecule without the quencher (10^−8 s), and KSV is the Stern−Volmer dynamic quenching constant.1 F0/F=1+Kqτ0D=1+KSVD
The reaction of the protein (P) and a drug molecule or inhibitor (D) was considered as Eq. 2, where P is the protein, D is the drug molecule, and DnP is the new complex molecule with the binding constant of KA.2 P+D→DnP
As the number of the binding site of protein and drug is respectively n and 1, the equivalent concentration of the complex DnP is n[DnP]; the equivalent concentration of the protein is n[P] and the equivalent concentration of the drug is [D]. In this respect, the KA value is calculated based on the Eq. (3).3 KA=nDnP/DnP
If the total concentration of protein is [Pt] and the total concentration of the drug is [Dt]: [Pt] = [Pf] + [DnP] and [Df] = [Dt] − n[DnP].
If protein (P) is the only fluorescence in the reaction system, thus:4 F0/F=Pt/Pf where F and F0 are the fluorescence intensity of protein in the presence and absence of drug D, respectively. Therefore, the relationship between the fluorescence intensity and the drug total concentration can be deduced from Eq. (5).5 F0/F=KADtF0/F0-F-nKAPt
Keeping the total concentration of protein at a definite value and varying the total concentration of the drug leads to obtaining the plot of F0/F as a function of [Dt] F0/(F0 − F) following with the calculation of KA.
The standard thermodynamic values were calculated according to Eqs. (6), (7), where ΔH, ΔG, and ΔS are enthalpy, free energy, and entropy changes, respectively. In the case of small changes in temperature, the enthalpy change can be considered as a constant and ΔH is calculated from Eq. (6) following with the calculation of ΔG and ΔS from Eq. (7).6 lnKA2/KA1=1/T1-1/T2ΔH/R 7 ΔG=-RTlnKA=ΔH-TΔS

α-glucosidase [3] = target: T1, α-glucosidase; experiment: Fluorescence quenching spectroscopy; type: binding; details: 35 °C

T1 sequence (P53341 whole entry): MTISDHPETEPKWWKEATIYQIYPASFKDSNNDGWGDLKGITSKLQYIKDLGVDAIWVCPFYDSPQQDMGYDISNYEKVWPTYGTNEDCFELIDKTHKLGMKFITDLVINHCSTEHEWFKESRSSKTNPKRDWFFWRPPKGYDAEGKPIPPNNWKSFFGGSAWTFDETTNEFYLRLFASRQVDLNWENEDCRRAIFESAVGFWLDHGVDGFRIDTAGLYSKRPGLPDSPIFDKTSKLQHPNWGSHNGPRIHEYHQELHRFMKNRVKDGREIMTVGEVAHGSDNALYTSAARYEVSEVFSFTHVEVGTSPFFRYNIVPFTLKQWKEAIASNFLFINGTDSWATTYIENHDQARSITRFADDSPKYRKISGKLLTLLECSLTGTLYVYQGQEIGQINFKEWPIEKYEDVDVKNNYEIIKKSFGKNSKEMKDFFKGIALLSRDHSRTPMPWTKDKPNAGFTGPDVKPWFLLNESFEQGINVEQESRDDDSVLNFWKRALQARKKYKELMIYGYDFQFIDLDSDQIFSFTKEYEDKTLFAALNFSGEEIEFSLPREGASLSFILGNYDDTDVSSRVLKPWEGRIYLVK

Work on `COc1ccc(C=NNC(=O)c2ccc(OCc3cn(Cc4ccccc4)nn3)cc2)cc1` [Compound 7m, 4-((1-Benzyl-1H-1,2,3-triazol-4-yl)methoxy)-N′-(4-methoxybenzylidene)benzohydrazide] yielded a melting point of 237 to 240 °C.
For `O=C(NN=Cc1ccccc1)c1ccc(OCc2cn(Cc3ccccc3Cl)nn2)cc1` [Compound 7c, N′-Benzylidene-4-((1-(2-chlorobenzyl)-1H-1,2,3-triazol-4-yl)methoxy)benzohydrazide], the melting point was 203 to 207 °C.
In the case of `COC(=O)c1c(C)cc(OC(=O)c2c(C)cc(O)c(/C=N/NC(=O)Cc3ccccc3)c2O)c(C)c1O` [E], the “toxicity on the HEK293 cell line” value (HEK293 cell line) is given as “without toxicity”.
`O=C(NN=Cc1ccc([N+](=O)[O-])cc1)c1ccc(OCc2cn(Cc3ccccc3Cl)nn2)cc1` [Compound 7g, 4-((1-(2-Chlorobenzyl)-1H-1,2,3-triazol-4-yl)methoxy)-N′-(4-nitrobenzylidene)benzohydrazide] gave a melting point of 204 to 206 °C.
For `O=C(NN=Cc1ccc([N+](=O)[O-])cc1)c1ccc(OCc2cn(Cc3ccc(F)cc3)nn2)cc1` [Compound 7f, 4-((1-(4-Fluorobenzyl)-1H-1,2,3-triazol-4-yl)methoxy)-N′-(4-nitrobenzylidene)benzohydrazide], the melting point was 202 to 205 °C.
Compound `O=C(NN=Cc1ccccc1)c1ccc(OCc2cn(Cc3ccc(F)cc3)nn2)cc1` [Compound 7b, N′-Benzylidene-4-((1-(4-fluorobenzyl)-1H-1,2,3-triazol-4-yl)methoxy)benzohydrazide] has a melting point of 160 to 163 °C.
For `O=c1oc2ccccc2c(O)c1C(c1ccc(OCc2cn(Cc3ccccc3Cl)nn2)cc1)c1c(O)c2ccccc2oc1=O` [A], the IC50 (α-glucosidase [1]) is given as 13 ± 1.5 µM and the mode of inhibition (α-glucosidase [1]) is given as “competitive”.
In the case of `COc1ccc(C=NNC(=O)c2ccc(OCc3cn(Cc4ccccc4Cl)nn3)cc2)cc1` [Compound 7o, 4-((1-(2-Chlorobenzyl)-1H-1,2,3-triazol-4-yl)methoxy)-N′-(4-methoxybenzylidene)benzohydrazide], the melting point is reported as 222 to 225 °C.
For `O=C1Nc2ccccc2/C1=N/N=C/c1ccc(OCc2cn(Cc3ccccc3F)nn2)cc1` [C], the IC50 (α-glucosidase [1]) is given as 16.43 ± 0.01 µM and the mode of inhibition (α-glucosidase [1]) is given as “competitively”.
For `CCc1ccc(NC(=O)Cn2cc(COc3ccc(-c4nc5ccccc5[nH]4)cc3)nn2)cc1` [Compound B], the IC50 (α-glucosidase [1]) is listed as 25.2 ± 0.9 µM.
`O=C(NN=Cc1ccc(Cl)cc1)c1ccc(OCc2cn(Cc3ccccc3)nn2)cc1` [Compound 7i, 4-((1-Benzyl-1H-1,2,3-triazol-4-yl)methoxy)-N′-(4-chlorobenzylidene)benzohydrazide] showed a melting point of 211 to 214 °C.
Work on `O=C(NN=Cc1ccc(Cl)cc1)c1ccc(OCc2cn(Cc3ccc(F)cc3)nn2)cc1` [Compound 7j, N′-(4-Chlorobenzylidene)-4-((1-(4-fluorobenzyl)-1H-1,2,3-triazol-4-yl)methoxy)benzohydrazide] yielded a melting point of 236 to 238 °C.
With `Cc1ccc(Cn2cc(COc3ccc(C(=O)NN=Cc4ccc([N+](=O)[O-])cc4)cc3)nn2)cc1` [Compound 7h, 4-((1-(4-Methylbenzyl)-1H-1,2,3-triazol-4-yl)methoxy)-N′-(4-nitrobenzylidene)benzohydrazide] the “Kq quenching rate constant” value (α-glucosidase [2]) was 1e+15 M⁻¹ s⁻¹, the n binding sites (α-glucosidase [2]) was 0.06 and the ΔS (α-glucosidase [2]) was 71.1. For the same compound, the melting point was 247 to 250 °C and the “Kq quenching rate constant” value (α-glucosidase [3]) was 6.8e+15 M⁻¹ s⁻¹.
For `O=C(NN=Cc1ccc([N+](=O)[O-])cc1)c1ccc(OCc2cn(Cc3ccccc3)nn2)cc1` [Compound 7e, 4-((1-Benzyl-1H-1,2,3-triazol-4-yl)methoxy)-N′-(4-nitrobenzylidene)benzohydrazide], the melting point was 193 to 196 °C.
In the case of `O=C(NN=Cc1ccccc1)c1ccc(OCc2cn(Cc3ccccc3)nn2)cc1` [Compound 7a, 4-((1-Benzyl-1H-1,2,3-triazol-4-yl)methoxy)-N′-benzylidenebenzohydrazide], the “Kq quenching rate constant” value (α-glucosidase [2]) is reported as 1.5e+15 M⁻¹ s⁻¹, the n binding sites (α-glucosidase [2]) is reported as 0.8 and the ΔS (α-glucosidase [2]) is reported as 48.37. For the same compound, the “Kq quenching rate constant” value (α-glucosidase [3]) was 9e+15 M⁻¹ s⁻¹.
In the case of `COc1ccc(C=NNC(=O)c2ccc(OCc3cn(Cc4ccc(C)cc4)nn3)cc2)cc1` [Compound 7p, N′-(4-Methoxybenzylidene)-4-((1-(4-methylbenzyl)-1H-1,2,3-triazol-4-yl)methoxy)benzohydrazide], the melting point is reported as 224 to 228 °C.
In the case of `O=C(NN=Cc1ccc(Cl)cc1)c1ccc(OCc2cn(Cc3ccccc3Cl)nn2)cc1` [Compound 7k, 4-((1-(2-Chlorobenzyl)-1H-1,2,3-triazol-4-yl)methoxy)-N′-(4-chlorobenzylidene)benzohydrazide], the melting point is reported as 246 to 248 °C.
With `Cc1ccc(Cn2cc(COc3ccc(C(=O)NN=Cc4ccccc4)cc3)nn2)cc1` [Compound 7d, N′-Benzylidene-4-((1-(4-methylbenzyl)-1H-1,2,3-triazol-4-yl)methoxy)benzohydrazide] the “Kq quenching rate constant” value (α-glucosidase [2]) was 4.2e+15 M⁻¹ s⁻¹, the n binding sites (α-glucosidase [2]) was 0.1 and the ΔS (α-glucosidase [2]) was 146.0. The melting point was 154 to 156 °C and the “Kq quenching rate constant” value (α-glucosidase [3]) was 1e+15 M⁻¹ s⁻¹.
With `Cc1ccc(Cn2cc(COc3ccc(C(=O)NN=Cc4ccc(Cl)cc4)cc3)nn2)cc1` [Compound 7l, N′-(4-Chlorobenzylidene)-4-((1-(4-methylbenzyl)-1H-1,2,3-triazol-4-yl)methoxy)benzohydrazide] the melting point was 216 to 218 °C.
